# Laboratory results taken from patent publication US8017579B2, “Treatment of viral infections” (priority 2003, dated 2011).
# Values joined by “and” are separate entries in the source; they are usually repeats but may differ in a detail not shown here. Identical values can stand only once. Like-named read-outs stand apart in the source and are kept apart here. Ends that are not written are not given here.
# Assays:
# [1] = test system: HSV1; assay type: cell-based, herpes simplex virus type 1; conditions: for antiviral activity against HSV1 (in words): HSV1 plaque assay, Vero cells
# Description: African Green Monkey Kidney (Vero) cells were maintained in Eagle's minimum essential medium with Earle's salt (EMEM) and supplemented with 10% foetal calf serum (heat-inactivated), 4 mM L-glutamine, and 1% (v/v) nonessential amino acids, plus penicillin and streptomycin (100 IU/ml and 100 μg/ml, respectively) (maintenance medium referred to as 10% EMEM). The cells were incubated at 37° C. in a humidified atmosphere of air with 5% CO2.
# On harvesting, monolayers were washed in phosphate-buffered saline (PBS), and dislodged by incubating with trypsin in PBS for 30 min, before inactivating trypsin by addition of an equal volume of 10% EMEM and centrifuging at 500 g (5 min, 4° C.). Cell pellets were resuspended in 10% EMEM, prior to cell counting and seeding of 24-well plates. For antiviral assays, medium containing only 0.5% FCS was used (referred to as 0.5% EMEM).
# Three separate passages of HSV1 virus were prepared by infecting Vero cells, and preparing semi-pure suspensions of virus from tissue culture supernatant and cell lysates, before freezing aliquots of virus at −85° C. Viral infectivity was assessed by carrying out plaque assays on serial dilutions of thawed aliquots (expressed in pfu/ml).
# Peptides were obtained in lyophilised form from a commercial supplier (AltaBioscience, University of Birmingham or Advanced Biomedical), and were produced at 5 micromole scale. N-terminals were protected by addition of an acetyl group, and the C-terminals were protected by addition of an amide group.
# Small quantities of peptide were weighed in sterile Eppendorf tubes, before addition of sufficient 0.5% EMEM to produce a 1.5 mM stock solution, which was frozen at −20° C. in aliquots.
# (§1) Vero cells were seeded at 125,000 cells per well in 10% EMEM, and were incubated overnight resulting in confluent monolayers. Peptides were diluted in 0.5% EMEM to give 2× final desired concentration, and 100 μl aliquots were arranged on 96-well plates in arrangement to be used for 24-well plate; control wells containing normal 0.5% EMEM were also prepared. Virus stocks (p3) were thawed, and diluted in 0.5% EMEM such that there were around 100 pfu in 100 μl. Each 24-well plate was inoculated separately. Firstly 100 μl of virus stock was added to the peptide or control medium arranged on a 96-well plate. This was incubated at 37° C. for ten minutes before inoculation. Medium was removed from four wells of a 24-well plate containing confluent Vero, and the 200 μl inoculum added to the appropriate well. Once all wells were treated, the 24-well plate was incubated for a further 60-80 minutes. Finally the peptide-containing inoculum was removed, and 1 ml of 1% EMEM containing 1% carboxymethylcellulose was added to each well. Plates were incubated for a further 22 hours, before removal of overlay, and addition of 10% formaldehyde in PBS. After a further one hour incubation, fixative was removed, monolayers washed several times with tap water, and stained with carbol fuchsin solubilised in water. After 30 minutes stain was removed, and plates washed several times with tap water, before being air dried. Plaques were counted using an Olympus IX70 Inverting Microscope, and antiviral effect expressed as a percentage of the control value for each peptide concentration. The IC50 was calculated from plots of inhibitory effect against peptide concentration.
# The methods employed were as described in Examples 1-4 expect peptides were prepared as 400 μM stocks in phosphate buffered saline (PBS).
# [2] = test system: HIV isolate SF162; experiment: HIV-1 infectious foci in NP2 glioma cells over-expressing CD4 and CCR5; assay type: cell-based; conditions: HIV isolate SF162, NP-2 glioma cells overexpressing CCR5, 0.1 to 10 micromolar
# Description: Similar experiments to those described in Example 2 were conducted to test the efficacy of the peptides according to the invention against HIV infection. The glioma cell line NP2 over-expressing both CD4 and the appropriate co-receptor (CCR5 or CXCR4) were maintained in DMEM supplemented with 10% FCS. 2×10^4 cells were plated per well of a 48-well plate 24 h prior to infection and grown at 37 C. The cells were then washed, and incubated in DMEM/FCS containing peptide concentrations ranging from 0.1 to 10 micromolar, at 37 C for 30 minutes. 200 focus-forming units of HIV-1 stocks were then added to each well, and the cells incubated at 37 C for a further 2 hours. The cells were then washed twice in PBS and fresh medium replaced. After 3 day's growth the cells were fixed in cold methanol:acetone, and stained in situ for expression of HIV-1 p24 using a monoclonal anti-p24 followed by a secondary anti-mouse beta-galactosidase conjugate. Expression was visualised by X-Gal staining and infectious foci enumerated by light-microscopy.
# [3] = test system: HSV2 clinical isolates; assay type: cell-based, herpes simplex virus type 2
# Description: as §1
# Plaque assays were performed. The methodology was as described in previous Examples for HSV1 plaque assays (including usage of Vero cells) except HSV2 clinical isolates (provided by Prof. Anthony Hart of Liverpool University) were employed instead.
# [4] = test system: HSV1; experiment: HSV1 plaque formation in Vero cells (Example 1); assay type: cell-based, herpes simplex virus type 1
# Description: (§2) FIG. 1 and table 1 show typical results for the test for anti-HSV1 activity. The assay involved treating confluent Vero cells in 24-well plates with medium containing virus and varying amounts of peptide for one hour, followed by removal of this inoculum, and addition of viscous ‘overlay’ medium, containing 0.2% high viscosity carboxymethylcellulose. The overlay medium only allows infection of those cells immediately adjacent to an infected cell. After 2 days incubation and then fixation and staining, small patches of infected cells (or ‘plaques’) are visible, which are counted. Each of these corresponds to the infection of a single cell during the one hour inoculation. ApoE141-149dp produced a 40% reduction in plaque number at a concentration of around 20 μM. Note the peptide was only present in the experimental system for 1 hour.
# [5] = test system: HSV2; experiment: HSV2 plaque formation in HEp-2 cells (Example 1); assay type: cell-based, herpes simplex virus type 2; conditions: HSV2, HEp-2 cells
# Description: as §2
# FIG. 2 and table 2 show typical results for the test for anti-HSV2 activity. The assay was carried out as for the anti-HSV1 assay, except Hep-2 cells were used rather than Vero cells. ApoE141-149dp produced a 50% reduction in plaque number at a concentration of around 20 μM. Again note that the peptide was only present in the experimental system for 1 hour.
# [6] = test system: HIV-1; conditions: 7 days; for % Decrease in HIV p24 Production, Mean ± sd / % Decrease in HIV p24 Production, Exp. 1-3: U937 cells
# Description: The assay was carried out by incubating HIV infected U937 cells in the presence of various levels of peptide for 7 days, followed by assay for levels of the HIV protein p24 in the cells using an Enzyme Linked Immunoabsorbant Assay (ELISA) technique.
# [7] = test system: bacteria; conditions: Azuma et al., Peptides, 21: 327-330 (2000); cited from earlier work
# [8] = 5 μM peptide, untreated mean 152 ± 10.7
substance,measurement,setting,value
Ac-HMLDVMQDHFSRASSIIDEL (N-terminus assumed) [GIN 29],IC50,[1],38.5 µM
Ac-RLRARMEEMRLRARMEEM-NH2 (N-terminus and C-terminus assumed) [GIN 15],IC50,[1],> 40 µM
Ac-WRWRKRWRKWRWRKRWRK-NH2 (N-terminus and C-terminus assumed) [GIN 33],antiviral activity against HSV1 (in words),[1],have antiviral activity
same,anti-HIV action (in words),[2],anti-HIV action
same,IC50,[3],10 µM
"ApoE263-286: peptide from a region of apolipoprotein E that is not involved in HSPG receptor binding (SWFEPLVEDMQRQWAGLVEKVQAA; UniProt P02649 281-304, looked up, fragment)","Plaque number, wells 1-4","[4]; 5 μM peptide in inoculum for 1 hour, untreated mean 107 ± 14.2",113 and 119 and 122 and 126
same,"Plaque number, Mean ± sd","[4]; 5 μM peptide, untreated mean 107 ± 14.2",120 ± 5.5
same,"Plaque number, Mean ± sd",[4]; 10 μM peptide,114 ± 11.1
same,"Plaque number, wells 1-4",[4]; 10 μM peptide,116 and 124 and 102
same,"Plaque number, Mean ± sd",[4]; 20 μM peptide,127 ± 17.0
same,"Plaque number, wells 1-4",[4]; 20 μM peptide,148 and 112 and 133 and 114
same,"Plaque number, Mean ± sd",[4]; 30 μM peptide,121 ± 11.2
same,"Plaque number, wells 1-4",[4]; 30 μM peptide,134 and 109 and 114 and 125
same,"Plaque number, Mean ± sd",[4]; 40 μM peptide,126 ± 11.2
same,"Plaque number, wells 1-4",[4]; 40 μM peptide,120 and 113 and 125 and 144
same,"Plaque number, Mean ± sd",[5]; [8],152 ± 12.0
same,"Plaque number, wells 1-4",[5]; [8],135 and 160 and 161 and 152
same,"Plaque number, Mean ± sd",[5]; 10 μM peptide,141 ± 16.1
same,"Plaque number, wells 1-4",[5]; 10 μM peptide,157 and 121 and 151 and 134
same,"Plaque number, Mean ± sd",[5]; 20 μM peptide,146 ± 27.3
same,"Plaque number, wells 1-4",[5]; 20 μM peptide,118 and 150 and 182 and 134
same,"Plaque number, Mean ± sd",[5]; 30 μM peptide,124 ± 24.2
same,"Plaque number, wells 1-4",[5]; 30 μM peptide,118 and 117 and 103 and 159
same,"Plaque number, Mean ± sd",[5]; 40 μM peptide,131 ± 24.2
same,"Plaque number, wells 1-4",[5]; 40 μM peptide,132 and 144 and 125 and 124
same,reduction in infectivity,"[6]; HIV infected U937 cells, 20 μM",20%
same,"% Decrease in HIV p24 Production, Mean ± sd",[6]; 10 μM peptide,23.21 ± 12.79%
same,"% Decrease in HIV p24 Production, Mean ± sd",[6]; 20 μM peptide,22.77 ± 13.07%
same,"% Decrease in HIV p24 Production, Exp. 1-3",[6]; 30 μM peptide,37.94% and 27.83% and 41.78%
same,"% Decrease in HIV p24 Production, Mean ± sd",[6]; 30 μM peptide,35.85 ± 7.21%
same,"% Decrease in HIV p24 Production, Mean ± sd",[6]; 40 μM peptide,38.87 ± 12.70%
same,"% Decrease in HIV p24 Production, Exp. 1-3",[6]; 50 μM peptide,33.36% and 41.45% and 45.66%
same,"% Decrease in HIV p24 Production, Mean ± sd",[6]; 50 μM peptide,40.16 ± 6.25%
"ApoE 133-162: peptide derivative of apoE with antibacterial action (Azuma et al.) (LRVRLASHLRKLRKRLLRDADDLQKRLAVY; UniProt P02649 151-180, looked up, fragment)",antibacterial action (in words),[7],most effective
GERLRARMEGERLRARME-NH2 (C-terminus assumed) [GIN 14],IC50,[1],> 40 µM
same,antiviral activity against HSV1 (in words),[1],no antiviral activity
HRWRKRWRKHRWRKRWRK-NH2 (C-terminus assumed) [MU_36],IC50,[1],10 µM
HRWRKRWRKWRWRKRWRK-NH2 (C-terminus assumed) [MU_31],IC50,[1],7.5 µM
KRWRKRWRKKRWRKRWRK-NH2 (C-terminus assumed) [MU_34],IC50,[1],9 µM
KRWRKRWRKWRWRKRWRK-NH2 (C-terminus assumed) [MU_29],IC50,[1],7.5 µM
LRKRKRLLRKRKRL-NH2 (C-terminus assumed) [GIN 37],IC50,[1],9 µM
same,antiviral activity against HSV1 (in words),[1],have antiviral activity
LRKRKRLRKLRKRKRLRK-NH2 (C-terminus assumed) [GIN 38],IC50,[1],9 µM
same,antiviral activity against HSV1 (in words),[1],have antiviral activity
LRTRKRGRKLRTRKRGRK-NH2 (C-terminus assumed) [GIN 16],IC50,[1],22 µM
same,antiviral activity against HSV1 (in words),[1],showed antiviral activity
same,antiviral activity against HSV1 (in words),[1]; listed as GIN16,appreciable antiviral effect
LRWRKRWRKLRWRKRWRK-NH2 (C-terminus assumed) [MU_35],IC50,[1],> 15 µM
LRWRKRWRKWRWRKRWRK-NH2 (C-terminus assumed) [MU_30],IC50,[1],7.5 µM
RRWRKRWRKRRWRKRWRK-NH2 (C-terminus assumed) [MU_33],IC50,[1],6.5 µM
same,IC50,[3],> 20 µM
RRWRKRWRKWRWRKRWRK-NH2 (C-terminus assumed) [MU_28],IC50,[1],7.5 µM
RTRKRGRKRTRKRGRK-NH2 (C-terminus assumed) [GIN 35],IC50,[1],9 µM
same,antiviral activity against HSV1 (in words),[1],have antiviral activity
RTRKRGRRTRKRGR-NH2 (C-terminus assumed) [GIN 36],IC50,[1],9 µM
same,antiviral activity against HSV1 (in words),[1],have antiviral activity
RTRKRWRKRTRKRGRK-NH2 (C-terminus assumed) [MU_70],IC50,[1],9.5 µM
same,IC50,[3],> 20 µM
RWRKRGRKRWRKRGRK-NH2 (C-terminus assumed) [MU_69],IC50,[1],13 µM
RWRKRWRKRWRKRWRK-NH2 (C-terminus assumed) [MU_37],IC50,[1],12.5 µM
RWRKRWRKRWRKRWRK-NH2 (C-terminus assumed) [MU_71],IC50,[1],16 µM
RWRKRWRKWRWRKRWRK-NH2 (C-terminus assumed) [MU_32],IC50,[1],7.5 µM
same,IC50,[3],> 20 µM
RWRKRWRWRKRWRWRKRW-NH2 (C-terminus assumed) [MU_84],IC50,[1],10 µM
"apoE 134-155: peptide derivative of apoE tested for antibacterial action (Azuma et al.) (RVRLASHLRKLRKRLLRDADDL; UniProt P02649 152-173, looked up, fragment)",antibacterial action (in words),[7],little effect
